Results published in article PMC5458078, “Global mapping of CARM1 substrates defines enzyme specificity and substrate recognition” (Nature Communications, 2017).

Test system: CARM1
Assay: 96-spot peptide array in vitro methylation, autoradiography
Type: biochemical, human
Conditions: 96-spot array, 3H-SAM, 30 °C
From the text: Having corroborated the ability of CARM1 to methylate most of the detected substrates, we designed an additional 96-spot peptide array (Fig. 2e and Supplementary Data 3) with two purposes in mind: (1) to examine the significance of surrounding amino acids on CARM1-directed arginine dimethylation, particularly those mutated in human cancers; and (2) to measure PRMT specificity towards respective substrates. The selected sequences encompassed a mixture herein identified and predicted CARM1 substrates (in light blue) and representative cancer-relevant substrates, accompanied by the sequences harbouring mutations detected in human patients[38] (in blue). We also arbitrarily mutated the recognition sequence surrounding R1064 on BAF155 (ref. [20])—the known CARM1 methylation site—to assess the significance of surrounding amino-acid residues to CARM1 activity (four sequence in dark blue). The array also featured 17 known substrates of PRMT1 (in grey), 10 substrates of PRMT5 (in purple) and 4 substrates of PRMT6 (in pink) as positive controls for these enzymes.
The FL and N-terminal domain-deleted version of human CARM1 cDNAs, and other PRMT FL cDNAs were cloned into pFN21K Halo Tag CMV Flexi mammalian expression vector (Promega, Madison, WI) using the unique Sgfl and Pmel site[55]. To express the protein, DNA constructs were transiently transfected into HEK293T CARM1 KO cells in 15 cm dishes using transIT-LT1 reagent (Mirus Bio, Madison, WI) according to the manufacturer's protocol. Proteins were allowed to express for 48 h. Cell pellets were then collected and lysed in lysis buffer (50 mM HEPES, pH 7.5, 150 mM NaCl, 0.005% NP-40, 0.5 mM EDTA, supplemented with 1 × protease inhibitor cocktail before use). The cells were sonicated on ice using a Branson Sonifier 450 with a microtip at 35% amplitude (10 s on, 30 s off, 6 cycles). The crude lysate was cleared by centrifugation (15,000 r.p.m., 4 °C, 20 min). The cleared lysate was then mixed with pre-washed Halo Link resin (60 μl resin for a 15 cm dish) and incubated with rotation at room temperature for 2 h. The resin was then washed twice with lysis buffer, once with lysis buffer supplemented with 1 M urea and twice with lysis buffer. The recombinant proteins were then eluted with cleavage buffer (lysis buffer supplemented with 1 mM DTT and 20 μg ml^−1 TEV protease) with rotation at room temperature for 2 h. The resin was centrifuged at 3,000 r.p.m. for 5 min, and the supernatant containing the cleaved protein was collected and protein concentration was determined using the Bradford assay (Thermo Scientific, Rockford, IL). Protein purity was assessed by running SDS–PAGE and Coomassie Blue staining.
Purified recombinant enzyme and substrates were incubated in methylation buffer (50 mM Tris-HCl, pH 8.0, 100 mM NaCl and 0.5 mM EDTA) for 1–4 h at 30 °C in the presence of 1 μl radioactive S-adenosyl-L-[methyl-^3H] methionine. The reaction was stopped by adding 5 × SDS sample buffer and boiling at 99 °C for 5 min. Proteins were resolved by SDS–PAGE. The gel was stained with Coomassie Brilliant Blue (Coomassie Brilliant Blue R-250 0.05% w/v: methanol 50%: acetic acid 10%: H2O 40%) followed by de-staining with dye-free buffer. Fixed gel was then soaked with amplify (GE Healthcare, Waukesha, WI) with gentle shaking at room temperature for 30 min before drying on a Whatman paper at 80 °C and exposing to an X-ray film in dark at −80 °C. Protein methylation was detected by autoradiography.
For methylation assays using the peptide array, 16 or 20 μg purified recombinant CARM1 or same molar concentration of the other PRMTs (for 96-spot and 192-spot arrays, respectively) was mixed well with 40 μl radioactive S-adenosyl-L-[methyl-^3H] methionine, 80 μl 5 × methylation buffer and ddH2O to achieve a final volume of 200 or 400 μl reaction (for 96-spot and 192-spot arrays, respectively). The Celluspot peptide arrays were customized and produced by Intavis Bioanalytical Instruments, Germany. […]

| Sequence | Methylation by CARM1 of mutated peptide vs wild-type sequence |
| --- | --- |
| DPYRPVRLQMQKLPT [MED12 (R1862) P1864Q] | significantly reduced methylation by CARM1 |
| PGNILAPRVPLTAPN [BAF155 (R1064) G1062A] | nearly abolished methylation by CARM1 |
| PGNILGARVPLTAPN [BAF155 (R1064) P1063A] | nearly abolished methylation by CARM1 |
| PGNILGPRVALTAPN [BAF155 (R1064) P1066A] | nearly abolished methylation by CARM1 |
| VQSLCDTRFHFQQRA [TET2 (R680) G678D] | significantly reduced methylation by CARM1 |
| YGSQTPQRCPMTMQG [ARID1A (R429) Y430C] | significantly reduced methylation by CARM1 |
| YGSQTPQRYQMTMQG [ARID1A (R429) P431Q] | significantly reduced methylation by CARM1 |
